Target: T1, human T1R2/T1R3 taste receptor (Homo sapiens, UniProt Q7RTX0+Q8TE23)
T1 construct: the cDNA for the receptors ht1R2 and ht1R3 and the cDNA for the blasticidin S deaminase gene have been cloned; expressed in transfected cells; host or cells: HEK293 cell line stably expressing mouse G-alpha-15, stably transfected with the tricistronic vector pTrix-Eb-R2R3 and selected with blasticidin
T1 sequence (Q8TE23 20-839): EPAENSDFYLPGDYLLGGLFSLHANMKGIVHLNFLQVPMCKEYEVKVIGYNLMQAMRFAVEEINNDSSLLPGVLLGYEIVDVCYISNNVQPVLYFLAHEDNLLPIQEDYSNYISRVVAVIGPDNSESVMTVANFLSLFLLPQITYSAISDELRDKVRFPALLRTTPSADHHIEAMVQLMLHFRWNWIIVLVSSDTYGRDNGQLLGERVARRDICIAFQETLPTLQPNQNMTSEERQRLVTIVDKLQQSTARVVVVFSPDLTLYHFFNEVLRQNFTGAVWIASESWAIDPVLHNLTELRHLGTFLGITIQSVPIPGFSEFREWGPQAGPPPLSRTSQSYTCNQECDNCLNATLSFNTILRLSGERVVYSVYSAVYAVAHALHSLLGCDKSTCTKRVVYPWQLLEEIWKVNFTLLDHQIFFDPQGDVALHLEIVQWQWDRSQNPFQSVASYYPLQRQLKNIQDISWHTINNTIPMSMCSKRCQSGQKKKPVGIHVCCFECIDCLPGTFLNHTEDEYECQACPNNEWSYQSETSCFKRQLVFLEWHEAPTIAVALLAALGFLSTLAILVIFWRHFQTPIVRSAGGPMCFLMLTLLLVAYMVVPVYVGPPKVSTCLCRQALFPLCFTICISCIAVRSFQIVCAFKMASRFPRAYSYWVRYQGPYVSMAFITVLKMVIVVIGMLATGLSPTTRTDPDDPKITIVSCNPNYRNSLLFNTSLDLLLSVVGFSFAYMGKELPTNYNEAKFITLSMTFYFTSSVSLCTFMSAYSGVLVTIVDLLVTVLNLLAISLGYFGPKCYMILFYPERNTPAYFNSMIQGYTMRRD
T1 sequence (Q7RTX0 21-852): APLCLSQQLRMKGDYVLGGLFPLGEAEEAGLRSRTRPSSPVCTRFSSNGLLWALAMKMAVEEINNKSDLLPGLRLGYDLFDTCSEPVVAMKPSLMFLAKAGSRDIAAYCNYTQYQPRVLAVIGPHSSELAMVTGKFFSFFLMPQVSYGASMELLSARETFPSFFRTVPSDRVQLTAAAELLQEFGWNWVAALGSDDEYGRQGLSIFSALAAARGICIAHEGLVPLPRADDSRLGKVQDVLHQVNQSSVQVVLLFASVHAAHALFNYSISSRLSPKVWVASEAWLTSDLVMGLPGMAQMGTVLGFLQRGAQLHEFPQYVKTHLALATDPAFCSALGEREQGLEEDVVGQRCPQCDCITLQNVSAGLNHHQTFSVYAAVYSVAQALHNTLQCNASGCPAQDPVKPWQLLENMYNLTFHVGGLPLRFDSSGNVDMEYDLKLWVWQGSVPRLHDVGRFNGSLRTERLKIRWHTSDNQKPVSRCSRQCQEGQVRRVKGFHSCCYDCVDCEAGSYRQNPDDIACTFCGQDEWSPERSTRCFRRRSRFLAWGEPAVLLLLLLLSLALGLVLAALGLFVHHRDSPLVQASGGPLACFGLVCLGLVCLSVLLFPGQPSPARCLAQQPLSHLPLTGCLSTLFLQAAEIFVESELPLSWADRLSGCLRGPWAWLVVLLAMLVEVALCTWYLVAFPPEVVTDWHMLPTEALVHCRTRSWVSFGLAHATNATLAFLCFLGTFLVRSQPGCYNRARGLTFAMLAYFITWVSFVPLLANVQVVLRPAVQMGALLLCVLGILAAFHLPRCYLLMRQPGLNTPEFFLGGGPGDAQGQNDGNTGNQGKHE
Test: calcium dependent cell based assay (Fluo-4 AM) in HEK293 cells stably expressing G-alpha-15, human T1R2 and human T1R3
Details: 30 mM fructose (5.4 g/l), pre-examinations
Experimental: Fluo-4 AM assay with stable HEK293 cells—Stable cells are maintained in DMEM high-glucose medium (Invitrogen) supplemented with 10% fetal bovine serum (Biochrom) and 4 mM L-glutamine (Invitrogen). Cells for calcium imaging are maintained in DMEM low-glucose medium supplemented with 10% FBS and 1× Glutamax-1 (Invitrogen) for 48 hours before seeding. These stable cells are trypsinised after 48 hours (either with Trypsin-EDTA, Accutase or TrypLE) and seeded onto poly-D-lysine coated 96-well assay plates (Corning) at a density of 45,000 cells/well in DMEM low-glucose medium supplemented with 10% FBS and 1× Glutamax-1.
After 24 hours, the cells were loaded in 100 μl medium with additional 100 μl of 4 μM Fluo-4 (calcium sensing dye, 2 μM end concentration; Molecular Probes) in Krebs-HEPES (KH)-buffer for 1 hour. The loading reagent is then replaced by 200 μl KH-buffer per well. […]
The dye-loaded stable cells in plates were placed into a fluorescence microtiter plate reader to monitor fluorescence (excitation 488 nm, emission 520 nm) change after the addition of 50 μl KH-buffer supplemented with 5× tastants. […]
Calcium mobilization was quantified as the change of peak fluorescence (ΔF) over the baseline level (F0). Data were expressed as the mean S.E. of the (ΔF/F0) value of replicated independent samples. The analysis was done with the software of the microtiter plate reader. […]

- activation of the sweet taste receptors: barely activating
Compound: O=C(CO)[C@@H](O)[C@H](O)[C@H](O)CO [fructose]

— patent US20110256291A1, “CYCLIC LIPOPEPTIDES FOR USE AS TASTE MODULATORS” (NUTRINOVA NUTRITION SPECIAL TIES & FOOD INGREDIENT GMBH, priority 2008, published 2011)
